# Test results: patent publication US12276654B2, “Chemical probe-dependent evaluation of protein activity and uses thereof” (The University of Chicago, priority 2017, dated 2025)
# Biological target: T1, FAAH (Homo sapiens, UniProt O00519)
# T1 construct: endogenous in cells
# T1 sequence (O00519 1-579): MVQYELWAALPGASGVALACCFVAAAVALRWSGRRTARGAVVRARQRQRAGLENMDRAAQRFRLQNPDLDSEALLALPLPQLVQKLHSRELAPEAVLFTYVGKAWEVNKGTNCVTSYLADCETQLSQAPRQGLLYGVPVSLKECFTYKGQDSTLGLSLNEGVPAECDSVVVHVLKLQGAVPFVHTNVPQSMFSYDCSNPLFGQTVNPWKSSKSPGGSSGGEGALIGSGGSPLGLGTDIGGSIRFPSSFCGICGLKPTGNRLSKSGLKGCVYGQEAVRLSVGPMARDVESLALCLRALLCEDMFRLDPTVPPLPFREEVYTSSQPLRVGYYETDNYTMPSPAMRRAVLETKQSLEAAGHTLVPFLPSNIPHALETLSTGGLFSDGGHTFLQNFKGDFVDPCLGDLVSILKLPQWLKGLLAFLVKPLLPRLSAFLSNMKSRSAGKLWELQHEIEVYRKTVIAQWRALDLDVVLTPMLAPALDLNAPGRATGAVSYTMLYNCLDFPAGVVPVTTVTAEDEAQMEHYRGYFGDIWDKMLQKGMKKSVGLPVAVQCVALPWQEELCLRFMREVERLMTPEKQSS
# Test: sADPL in situ target engagement in cancer cells, FAAH
# Type: cell-based
# Conditions: inhibitor prior to family-wide probe
# Protocol: FIG. 23. In situ Target Engagement. Cancer cells were treated with DMSO as the control, with inhibitor prior to family wide probe to pre-block the active site, or with family-wide probe directly. Then sADPL workflow was applied to read out the CT difference. Serine hydrolase NCEH1 and its specific inhibitor JW480, or FAAH and inhibitor PF3845 were applied. The activity fold change was transformed from CT value with PCR amplification factor 1.91 determined by a standard qPCR curve and the activities were normalized to DMSO control at different cell lysate concentrations. […] To quantitatively measure the target engagement, different dose of JW480 was applied to either its target NCEH1, or off-target MGLL.
# As another alternative detection method, sADPL is complementary with gel-based and MS-based detection methods. In this design, the inventors treat the live cell with several family-wide probes. The probes will label all the members of the protein families. Then one could get the labeled proteome after the cell lysis. […]
# A summary of this assay is provided below: • 1. […] In the oligo design, the orthogonal forward primers were employed for different antibody to enable the multiplexing real time PCR readout. […]
# Two amine modified oligos were conjugated to antibody and streptavidin, respectively. […] A Taqman probe was designed for real time PCR quantification. […]
structure (smiles),measurement,value
O=C(Nc1cccnc1)N1CCC(Cc2cccc(Oc3ccc(C(F)(F)F)cn3)c2)CC1 [PF3845],"FAAH activity in inhibitor competition group by sADPL, normalized to DMSO control",bring the activities down to the levels of DMSO controls
